Consider 16 compounds from article PMC9643456, “Matching amino acids membrane preference profile to improve activity of antimicrobial peptides” (Communications Biology, 2022).

Like-named read-outs stand apart in the source and are kept apart here. Square brackets hold non-standard residues; d marks the D form. Ends that are not written are not given here. Peptide text beside a SMILES is read from it. dBta = N[C@H](Cc1csc2ccccc12)C(=O)O

The test system of the data set is human red blood cells. The data set can be described thus: Hemolytic activity. The data set is classed as cell-based. The protocol:
Human red blood cells (Zenbio, North Carolina, USA) and peptides were separately diluted in PBS (blood concentration, 8%). The blood cell and peptide solutions were then mixed in 96-well polyethylene plates (SPL, Gyeonggi-do, Korea) and incubated for 18 h at 37 °C. The final concentration of human red blood cells was 4%, while peptide concentrations were 100 μM, 50 μM, 25 μM, 12.5 μM, 6.25 μM, 3.13 μM, 1.56 μM, and 0.78 μM. After incubation, the plates were centrifuged at 1000 × g for 5 min, and the supernatants were transferred to 96-well polyethylene plates. Hemolysis levels were determined by measuring the absorbance at 540 nm with a SpectraMax plate spectrophotometer (Molecular Devices, California, USA). Control samples were treated with 1% Triton X-100 (for 100% hemolysis) or solution with 0 μM peptide (for 0% hemolysis) and melittin (for positive control). Each experiment was performed in triplicate.

As for WLLWIALRKKR-NH2 [WCopW2], the “Hemolysis percent, 25 μM” value (red cells of human, 18 h, 25) is listed as 8.19%. Under “red cells of human, 18 h, 50”, the “Hemolysis percent, 50 μM” value was determined as 11.43%. In addition, where the note is “red cells of human, 18 h”, the “Hemolysis percent, 100 μM” value amounted to 23.10%.

On to `CC[C@@H](C)[C@@H](NC(=O)[C@@H](Cc1c[nH]c2ccccc12)NC(=O)[C@H](NC(=O)[C@@H](CC(C)C)NC(=O)[C@H](N)Cc1c[nH]c2ccccc12)C(C)C)C(=O)N[C@H](Cc1ccc(O)cc1)C(=O)N[C@@H](C(=O)N[C@H](CCCNC(=N)N)C(=O)N[C@H](CCCCN)C(=O)N[C@H](CCCCN)C(=O)N[C@H](CCCNC(=N)N)C(N)=O)C(C)C` [WCopWVY3] (H-[dW][dL][dV][dW][dI][dY][dV][dR][dK][dK][dR]-NH2), for which the “Hemolysis percent, 25 μM” value (red cells of human, 18 h, 25) came out at 1.92%. Further, where the note is “red cells of human, 18 h, 50”, the “Hemolysis percent, 50 μM” value is listed as 5.67%. For the setting “red cells of human, 18 h”, the “Hemolysis percent, 100 μM” value was 7.01%.

Regarding `CC[C@@H](C)[C@@H](NC(=O)[C@@H](Cc1c[nH]c2ccccc12)NC(=O)[C@H](NC(=O)[C@@H](CC(C)C)NC(=O)[C@H](N)Cc1c[nH]c2ccccc12)C(C)C)C(=O)N[C@H](Cc1c[nH]c2ccccc12)C(=O)N[C@H](CCC(N)=O)C(=O)N[C@H](CCCNC(=N)N)C(=O)N[C@H](CCCNC(=N)N)C(=O)N[C@H](CCCNC(=N)N)C(N)=O` [WCopW30] (H-[dW][dL][dV][dW][dI][dW][dQ][dR][dR][dR]-NH2), under “red cells of human, 18 h, 25”, the “Hemolysis percent, 25 μM” value is 0.32%. Also, the “Hemolysis percent, 50 μM” value (red cells of human, 18 h, 50) is 2.74%. Also, the “Hemolysis percent, 100 μM” value (red cells of human, 18 h) is recorded as 4.92%.

For `CCCCCCCCCC(=O)N[C@@H](Cc1c[nH]c2ccccc12)C(=O)N[C@H](CC(N)=O)C(=O)N[C@@H](CC(=O)O)C(=O)N[C@@H]1C(=O)NCC(=O)N[C@@H](CCCN)C(=O)N[C@@H](CC(=O)O)C(=O)N[C@H](C)C(=O)N[C@@H](CC(=O)O)C(=O)NCC(=O)N[C@H](CO)C(=O)N[C@@H]([C@H](C)CC(=O)O)C(=O)N[C@@H](CC(=O)c2ccccc2N)C(=O)O[C@@H]1C` [Daptomycin, reference compound], the “Hemolysis percent, 25 μM” value turned out to be 0.01 ±0.02%. Besides, the “Hemolysis percent, 25 μM” value (red cells of human, 18 h, 25) amounted to 0.01%. For the same compound, the “Hemolysis percent, 50 μM” value (red cells of human, 18 h, 50) is on record as 0.03%. For the same compound, the “Hemolysis percent, 100 μM” value (red cells of human, 18 h) is 0.04 ±0.02%.

For the compound `CC[C@@H](C)[C@@H](NC(=O)[C@@H](Cc1c[nH]c2ccccc12)NC(=O)[C@H](NC(=O)[C@@H](CC(C)C)NC(=O)[C@H](N)Cc1c[nH]c2ccccc12)C(C)C)C(=O)N[C@H](Cc1c[nH]c2ccccc12)C(=O)N[C@H](CCCNC(=N)N)C(=O)N[C@H](CCCNC(=N)N)C(=O)N[C@H](CCC(=O)O)C(=O)N[C@H](CCC(N)=O)C(N)=O` [WCopW34] (H-[dW][dL][dV][dW][dI][dW][dR][dR][dE][dQ]-NH2), the “Hemolysis percent, 25 μM” value (red cells of human, 18 h, 25) is listed as -0.18%. Besides, the “Hemolysis percent, 50 μM” value (red cells of human, 18 h, 50) is listed as -0.17%. Besides, under “red cells of human, 18 h”, the “Hemolysis percent, 100 μM” value is -0.14%.

For the compound `CC(C)C[C@@H](NC(=O)[C@H](N)Cc1c[nH]c2ccccc12)C(=O)N[C@@H](C(=O)N[C@H](Cc1c[nH]c2ccccc12)C(=O)N[C@H](CO)C(=O)N[C@H](Cc1c[nH]c2ccccc12)C(=O)N[C@H](CCCNC(=N)N)C(=O)N[C@H](CCCNC(=N)N)C(=O)N[C@H](CCCNC(=N)N)C(N)=O)C(C)C` [WCopW39] (H-[dW][dL][dV][dW][dS][dW][dR][dR][dR]-NH2), the “Hemolysis percent, 25 μM” value (red cells of human, 18 h, 25) stood at 0.09%. Further, under “red cells of human, 18 h, 50”, the “Hemolysis percent, 50 μM” value is on record as 0.06%. The “Hemolysis percent, 100 μM” value (red cells of human, 18 h) came out at 0.36%.

For `CC[C@@H](C)[C@@H](NC(=O)[C@@H](Cc1c[nH]c2ccccc12)NC(=O)[C@@H](CC(C)C)NC(=O)[C@@H](CC(C)C)NC(=O)[C@H](N)Cc1c[nH]c2ccccc12)C(=O)N[C@H](C)C(=O)N[C@H](CC(C)C)C(=O)N[C@H](CCCNC(=N)N)C(=O)N[C@H](CCCCN)C(=O)N[C@H](CCCCN)C(N)=O` [WCopW6] (H-[dW][dL][dL][dW][dI][dA][dL][dR][dK][dK]-NH2), where the note is “red cells of human, 18 h, 25”, the “Hemolysis percent, 25 μM” value is recorded as 4.12%. Also, the “Hemolysis percent, 50 μM” value (red cells of human, 18 h, 50) worked out at 7.05%. Moreover, the “Hemolysis percent, 100 μM” value (red cells of human, 18 h) is recorded as 18.06%.

On to `CC[C@@H](C)[C@@H](NC(=O)[C@@H](Cc1c[nH]c2ccccc12)NC(=O)[C@@H](CC(C)C)NC(=O)[C@@H](CC(C)C)NC(=O)[C@H](N)Cc1c[nH]c2ccccc12)C(=O)N[C@H](C)C(=O)N[C@H](CC(C)C)C(=O)N[C@H](CCCNC(=N)N)C(=O)N[C@H](CCCCN)C(=O)N[C@H](CCCCN)C(N)=O` [WCopW7] (H-[dW][dL][dL][dW][dI][dA][dL][dR][dK][dK]-NH2), for which, for the setting “red cells of human, 18 h, 25”, the “Hemolysis percent, 25 μM” value stood at 7.25%. Also, the “Hemolysis percent, 50 μM” value (red cells of human, 18 h, 50) amounted to 10.05%. Under “red cells of human, 18 h”, the “Hemolysis percent, 100 μM” value was 14.99%.

With `CC(C)C[C@@H](NC(=O)[C@H](N)Cc1c[nH]c2ccccc12)C(=O)N[C@@H](C(=O)N[C@H](Cc1c[nH]c2ccccc12)C(=O)N[C@H](CC(=O)O)C(=O)N[C@H](Cc1c[nH]c2ccccc12)C(=O)N[C@H](CCCNC(=N)N)C(=O)N[C@H](CCCNC(=N)N)C(=O)N[C@H](CCCNC(=N)N)C(N)=O)C(C)C` [WCopW38] (H-[dW][dL][dV][dW][dD][dW][dR][dR][dR]-NH2), the “Hemolysis percent, 50 μM” value turned out to be 0.06%. Further, the “Hemolysis percent, 50 μM” value (red cells of human, 18 h, 50) stood at 0.06 ±0.06%.

On to `CC[C@@H](C)[C@@H](NC(=O)[C@@H](Cc1c[nH]c2ccccc12)NC(=O)[C@H](NC(=O)[C@@H](CC(C)C)NC(=O)[C@H](N)Cc1c[nH]c2ccccc12)C(C)C)C(=O)N[C@H](Cc1c[nH]c2ccccc12)C(=O)N[C@H](CCCNC(=N)N)C(=O)N[C@H](CCCNC(=N)N)C(=O)N[C@H](CCC(N)=O)C(=O)N[C@H](CCCNC(=N)N)C(N)=O` [WCopW31] (H-[dW][dL][dV][dW][dI][dW][dR][dR][dQ][dR]-NH2), for which the “Hemolysis percent, 25 μM” value (red cells of human, 18 h, 25) is on record as 0.35%. The “Hemolysis percent, 50 μM” value (red cells of human, 18 h, 50) is given as 1.82%. Where the note is “red cells of human, 18 h”, the “Hemolysis percent, 100 μM” value turned out to be 6.88%.

`CC[C@@H](C)[C@@H](NC(=O)[C@@H](Cc1c[nH]c2ccccc12)NC(=O)[C@@H](CC(C)C)NC(=O)[C@@H](CC(C)C)NC(=O)[C@H](N)Cc1c[nH]c2ccccc12)C(=O)N[C@H](C)C(=O)N[C@H](CC(C)C)C(=O)N[C@H](CCCNC(=N)N)C(=O)N[C@H](CCCCN)C(=O)N[C@H](CCCCN)C(=O)N[C@H](CCCNC(=N)N)C(N)=O` [WCopW3] (H-[dW][dL][dL][dW][dI][dA][dL][dR][dK][dK][dR]-NH2): the “Hemolysis percent, 25 μM” value (red cells of human, 18 h, 25) was found to be 3.64%. The “Hemolysis percent, 50 μM” value (red cells of human, 18 h, 50) was 9.36%. Also, under “red cells of human, 18 h”, the “Hemolysis percent, 100 μM” value stood at 13.37%.

As for `CC[C@@H](C)[C@@H](NC(=O)[C@@H](CC(C)C)NC(=O)[C@H](N)Cc1c[nH]c2ccccc12)C(=O)N[C@H](Cc1c[nH]c2ccccc12)C(=O)N[C@@H](C(=O)N[C@H](Cc1ccc(O)cc1)C(=O)N[C@H](CCCNC(=N)N)C(=O)N[C@H](CCCCN)C(=O)N[C@H](CCCCN)C(=O)N[C@H](CCCNC(=N)N)C(N)=O)C(C)C` [WCopW27] (H-[dW][dL][dI][dW][dV][dY][dR][dK][dK][dR]-NH2), under “red cells of human, 18 h, 25”, the “Hemolysis percent, 25 μM” value is recorded as 1.82%. Moreover, the “Hemolysis percent, 50 μM” value (red cells of human, 18 h, 50) was 3.95%. Further, the “Hemolysis percent, 100 μM” value (red cells of human, 18 h) is recorded as 7.43%.

For the compound `CC[C@@H](C)[C@@H](NC(=O)[C@@H](Cc1c[nH]c2ccccc12)NC(=O)[C@@H](CC(C)C)NC(=O)[C@H](N)CC(C)C)C(=O)N[C@H](C)C(=O)N[C@H](CC(C)C)C(=O)N[C@H](CCCCN)C(=O)N[C@H](CCCCN)C(=O)N[C@H](CCCCN)C(=O)N[C@H](CCCCN)C(N)=O` [WCopW12] (H-[dL][dL][dW][dI][dA][dL][dK][dK][dK][dK]-NH2), the “Hemolysis percent, 25 μM” value (red cells of human, 18 h, 25) was 0.98%. For the same compound, where the note is “red cells of human, 18 h, 50”, the “Hemolysis percent, 50 μM” value was 0.98%. The “Hemolysis percent, 100 μM” value (red cells of human, 18 h) came out at 0.98%.

For `CC[C@@H](C)[C@@H](NC(=O)[C@@H](Cc1c[nH]c2ccccc12)NC(=O)[C@@H](CC(C)C)NC(=O)[C@@H](CC(C)C)NC(=O)[C@H](N)Cc1csc2ccccc12)C(=O)NCC(=O)N[C@H](CC(C)C)C(=O)N[C@H](CCCNC(=N)N)C(=O)N[C@H](CCCCN)C(=O)N[C@H](CCCCN)C(=O)N[C@H](CCCNC(=N)N)C(N)=O` [WCopW16] (H-[dBta][dL][dL][dW][dI]G[dL][dR][dK][dK][dR]-NH2), the “Hemolysis percent, 25 μM” value (red cells of human, 18 h, 25) amounted to 2.77%. Moreover, the “Hemolysis percent, 50 μM” value (red cells of human, 18 h, 50) was 5.57%. Further, the “Hemolysis percent, 100 μM” value (red cells of human, 18 h) was determined as 10.59%.

With `CC[C@@H](C)[C@@H](NC(=O)[C@@H](Cc1c[nH]c2ccccc12)NC(=O)[C@H](NC(=O)[C@@H](CC(C)C)NC(=O)[C@H](N)Cc1c[nH]c2ccccc12)C(C)C)C(=O)N[C@H](Cc1ccc(O)cc1)C(=O)N[C@H](CCCNC(=N)N)C(=O)N[C@H](CCCCN)C(=O)N[C@H](CCCCN)C(=O)N[C@H](CCCNC(=N)N)C(N)=O` [WCopWVY4] (H-[dW][dL][dV][dW][dI][dY][dR][dK][dK][dR]-NH2), under “red cells of human, 18 h, 25”, the “Hemolysis percent, 25 μM” value was 1.86%. Moreover, for the setting “red cells of human, 18 h, 50”, the “Hemolysis percent, 50 μM” value came to 2.57%. For the same compound, the “Hemolysis percent, 100 μM” value (red cells of human, 18 h) is 5.57%.

Turning to `CC[C@@H](C)[C@@H](NC(=O)[C@@H](Cc1c[nH]c2ccccc12)NC(=O)[C@@H](CC(C)C)NC(=O)[C@@H](CC(C)C)NC(=O)[C@H](N)Cc1c[nH]c2ccccc12)C(=O)N[C@H](C)C(=O)N[C@H](CC(C)C)C(=O)N[C@H](CCCNC(=N)N)C(=O)N[C@H](CCCCN)C(=O)N[C@H](CCCCN)C(=O)N[C@H](CCCNC(=N)N)C(N)=O` [WCopW4] (H-[dW][dL][dL][dW][dI][dA][dL][dR][dK][dK][dR]-NH2), where the note is “red cells of human, 18 h, 25”, the “Hemolysis percent, 25 μM” value is 5.94%. Further, the “Hemolysis percent, 50 μM” value (red cells of human, 18 h, 50) was 9.85%. Moreover, the “Hemolysis percent, 100 μM” value (red cells of human, 18 h) was 18.84%.
